Biological target: T1, CmPCYA (Cyanidioschyzon merolae, UniProt M1V4R9)
T1 construct: gene CYME_CMG110C; N-terminal GST-tag, pGEX-6P-1, co-expressed with pGro7 chaperones in E. coli BL21(DE3)
T1 sequence (M1V4R9 1-325): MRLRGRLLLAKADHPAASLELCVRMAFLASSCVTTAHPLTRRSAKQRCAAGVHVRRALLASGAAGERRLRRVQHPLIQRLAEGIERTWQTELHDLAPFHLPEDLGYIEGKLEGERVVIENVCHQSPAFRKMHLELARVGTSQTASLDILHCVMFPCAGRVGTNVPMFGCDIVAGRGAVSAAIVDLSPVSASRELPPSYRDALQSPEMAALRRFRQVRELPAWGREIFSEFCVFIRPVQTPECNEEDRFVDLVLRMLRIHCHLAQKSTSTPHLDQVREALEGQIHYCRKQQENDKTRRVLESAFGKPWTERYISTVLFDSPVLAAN
Assay: anaerobic bilin reductase assay, HPLC
Format: biochemical
Details: BV as substrate; PetF, FNR, NADPH-regenerating system; 20 °C

SMILES: CC=C1C(=Cc2[nH]c(C=C3N=C(C=C4NC(=O)C(CC)=C4C)C(C)=C3CCC(=O)O)c(CCC(=O)O)c2C)NC(=O)C1C (stereo not shown) [PCB]
- anaerobic bilin reductase assay, HPLC: catalyzing the reduction of BV to PCB (Fig. 7B: CmPCYA)
